The experiment has as its target NaV1.5 (Homo sapiens, UniProt Q14524). Put plainly: Cut-open oocyte recording of NaV1.5. It counts as cell-based. Particulars: 10 µM CP1. The source says:
Since CP1 has a similar effect to PIP2 in mediating VSD-pore coupling in KCNQ channels, we tested if CP1 has effects on other ion channels that are also sensitive to PIP2 or are voltage activated and share general structural features of the VSD and the pore with KCNQ. […] On the other hand, NaV1.5 and KV4.2 are voltage-gated ion channels.
Fig. 6 Effects of CP1 on other ion channels expressed in Xenopus oocytes. a Currents of Kir1.1, CaV1.2, NaV1.5, hERG, and KV4.2 before and after application of 10 µM CP1, respectively. The voltages for holding, test, and returning pulses were Kir1.1, 0 mV, −100 to +60 mV, 0; CaV1.2, −100 mV, −100 to +60, −100 mV; NaV1.5, −100, −120 to +40 mV, −120 mV; hERG, −80 mV, −90 to +60 mV, −60 mV; KV4.2, −80 mV, −100 mV to +80 mV, −40 mV; HCN4, −30 mV, −30 to −140 mV, −120 mV. b Current–voltage relations of Kir1.1 channel in the absence or presence of 10 µM CP1 (n = 7). c–g G–V relations of indicated channels with and without 10 µM CP1. The ΔV1/2 of G–V relations (mV) are CaV1.2, 3.38 ± 0.71 mV (c); NaV1.5, −2.26 ± 0.95 mV (d); hERG, 6.85 ± 1.81 mV (e); KV 4.2, −2.26 ± 2.88 mV (f); HCN4, 17.13 ± 1.59 mV (g).
Complementary DNA (cDNA) encoding human KCNQ1 (UniProtKB/Swiss‐Prot under accession no. P51787), KCNQ2 (O43526), KCNQ3 (O43525), KCNE1 (P15382), Kir1.1 (P48048), hERG (Q12809), KV4.2 (Q63881), NaV1.5 (Q14524), NaV β1 (Q07699), CaV1.2 (Q13936), CaV β1a (Q02641), CaV α2/δ1 (P54289), and HCN4 (Q9Y3Q4) were subcloned into oocyte expression vectors, respectively. Site-directed mutations of the KCNQ1 channel were all produced by overlap extension polymerase chain reaction (PCR) with high-fidelity Pfu polymerase (Stratagene, CA). The presence of the desired mutation was verified by sequencing the PCR-amplified regions. All the primer sequences used in this study are available in Supplementary Table 1. The complementary RNA (cRNA) of all these channels and mutations was transcribed in vitro with the T3, T7, or SP6 polymerase mMessage mMachine kit (Invitrogen, Thermo Fisher Scientific, MO).
The use of Xenopus laevis to obtain oocytes was approved by the Washington University Animal Studies Committee (protocol #20190030). Oocytes were manually dispersed and digested with collagenase (0.5 mg/ml, Sigma-Aldrich, Saint Louis, MO) to remove the follicle cell layer. Stage V or VI oocytes were selected and injected with cRNAs (9.2 ng) of channel or mutations. Especially, to characterize IKs, a mix of cRNAs at a molar ratio 4:1 (KCNQ1:KCNE1) was injected. For KCNQ2/KCNQ3, the molar ratio was 1:1 (KCNQ2:KCNQ3). For sodium channels, a 3:1 molar ratio (β1:NaV1.5) and for calcium channels a weight ratio 1:1:1 (β1:α2/δ1:CaV1.2) was injected, respectively. Injected oocytes were incubated in ND96 solution containing (in mM) 96 NaCl, 2 KCl, 1.8 CaCl2, 1 MgCl2, and 5 HEPES, pH 7.6, supplemented with 2.5 mM Na pyruvate and 1% penicillin–streptomycin, at 18 °C for 3–7 days before recording.
NaV1.5 currents were recorded with a cut-open amplifier (CA-1B, Dagan Corporation) coupled with an A/D converter (Digidata 1440, Molecular Devices). The data were acquired using Clampex software (v10, Molecular Devices). The internal solution was composed of (mM) 105 NMG‐Mes, 10 Na‐Mes, 20 HEPES, and 2 EGTA, pH 7.4. The external solution was composed of (mM) 25 NMG‐Mes, 90 Na‐Mes, 20 HEPES, and 2 Ca‐Mes2, pH 7.4. The ionic currents were recorded using the standard I–V protocol. From a holding potential of −120 mV, cells were stepped to a 100-ms prepulse of −120 mV and then stepped to test potentials ranging from −120 to 60 mV with 20-mV increment, […] a 100-ms postpulse of −120 mV.

The results in this text go back to paper PMC7367283, “A PIP2 substitute mediates voltage sensor-pore coupling in KCNQ activation” (Communications Biology, 2020).

Sequence of NaV1.5 (Q14524 whole entry): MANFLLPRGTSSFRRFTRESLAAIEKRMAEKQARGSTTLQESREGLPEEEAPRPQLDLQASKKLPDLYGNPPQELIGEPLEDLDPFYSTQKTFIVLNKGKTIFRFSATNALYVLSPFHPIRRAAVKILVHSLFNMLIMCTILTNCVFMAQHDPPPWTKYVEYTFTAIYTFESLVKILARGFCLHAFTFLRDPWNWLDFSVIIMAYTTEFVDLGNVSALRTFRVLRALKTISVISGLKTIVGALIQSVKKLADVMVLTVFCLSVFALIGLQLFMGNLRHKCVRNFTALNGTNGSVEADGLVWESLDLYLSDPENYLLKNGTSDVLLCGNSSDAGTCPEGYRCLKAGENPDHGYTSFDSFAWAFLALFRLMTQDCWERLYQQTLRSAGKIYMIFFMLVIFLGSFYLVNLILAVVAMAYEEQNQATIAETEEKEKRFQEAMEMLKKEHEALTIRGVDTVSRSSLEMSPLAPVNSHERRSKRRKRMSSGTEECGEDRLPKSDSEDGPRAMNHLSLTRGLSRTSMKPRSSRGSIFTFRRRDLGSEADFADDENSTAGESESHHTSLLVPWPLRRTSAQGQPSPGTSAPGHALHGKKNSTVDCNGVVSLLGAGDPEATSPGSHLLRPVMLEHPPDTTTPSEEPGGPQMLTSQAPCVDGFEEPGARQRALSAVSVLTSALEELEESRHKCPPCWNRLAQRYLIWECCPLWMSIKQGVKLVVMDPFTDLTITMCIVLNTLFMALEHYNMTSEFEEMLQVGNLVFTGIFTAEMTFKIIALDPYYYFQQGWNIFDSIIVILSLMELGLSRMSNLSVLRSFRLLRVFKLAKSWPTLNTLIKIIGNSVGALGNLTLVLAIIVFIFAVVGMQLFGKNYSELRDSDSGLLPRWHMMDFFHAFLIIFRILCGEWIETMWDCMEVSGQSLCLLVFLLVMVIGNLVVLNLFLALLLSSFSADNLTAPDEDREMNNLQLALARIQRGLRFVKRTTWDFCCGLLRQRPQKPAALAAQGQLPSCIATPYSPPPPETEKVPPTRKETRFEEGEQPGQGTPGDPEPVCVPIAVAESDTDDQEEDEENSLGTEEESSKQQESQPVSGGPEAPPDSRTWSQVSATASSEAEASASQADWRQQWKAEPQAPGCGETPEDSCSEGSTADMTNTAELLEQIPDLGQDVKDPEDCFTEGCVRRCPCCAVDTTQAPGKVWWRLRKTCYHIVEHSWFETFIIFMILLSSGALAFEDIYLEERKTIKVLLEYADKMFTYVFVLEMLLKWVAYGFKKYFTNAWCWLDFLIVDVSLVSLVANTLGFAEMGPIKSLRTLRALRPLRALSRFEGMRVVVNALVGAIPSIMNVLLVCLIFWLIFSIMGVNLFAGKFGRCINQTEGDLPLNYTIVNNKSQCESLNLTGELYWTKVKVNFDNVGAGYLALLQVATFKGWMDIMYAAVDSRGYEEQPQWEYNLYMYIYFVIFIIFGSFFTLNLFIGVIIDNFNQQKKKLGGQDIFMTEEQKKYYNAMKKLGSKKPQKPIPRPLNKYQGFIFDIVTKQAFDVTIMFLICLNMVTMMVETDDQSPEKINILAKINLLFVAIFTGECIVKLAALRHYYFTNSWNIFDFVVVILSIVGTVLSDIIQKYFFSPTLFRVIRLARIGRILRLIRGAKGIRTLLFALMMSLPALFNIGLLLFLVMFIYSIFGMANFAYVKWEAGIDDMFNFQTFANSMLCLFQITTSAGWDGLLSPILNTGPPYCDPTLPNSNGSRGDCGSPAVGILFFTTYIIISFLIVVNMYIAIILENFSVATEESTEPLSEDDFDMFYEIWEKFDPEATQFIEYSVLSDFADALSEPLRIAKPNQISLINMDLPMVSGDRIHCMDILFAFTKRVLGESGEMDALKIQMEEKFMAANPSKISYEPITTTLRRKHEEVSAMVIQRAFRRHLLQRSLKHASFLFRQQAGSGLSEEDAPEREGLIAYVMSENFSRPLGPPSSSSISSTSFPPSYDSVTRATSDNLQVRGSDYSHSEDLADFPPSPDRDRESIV
Sequence of NaV1.5 (Q07699 19-218 partner): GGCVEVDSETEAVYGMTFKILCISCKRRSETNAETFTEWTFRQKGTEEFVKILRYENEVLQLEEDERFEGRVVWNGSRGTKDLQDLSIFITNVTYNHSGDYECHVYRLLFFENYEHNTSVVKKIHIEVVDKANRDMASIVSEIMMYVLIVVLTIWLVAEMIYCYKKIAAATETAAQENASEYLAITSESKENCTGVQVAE

In the case of `O=S(=O)([O-])Oc1c(-c2sc3c(ccc4cccc(Cl)c43)c2OS(=O)(=O)[O-])[nH]c2ccc(Br)cc12.[Na+].[Na+]` [CP1, DISODIUM 5-BROMO-2-[9-CHLORO-3-(SULFONATOOXY) NAPHTHO [1,2-B] THIEN-2-YL]-1H-INDOL-3-YL SULFATE], the “ΔV1/2 of G–V relations” value is reported as −2.26 ± 0.95 mV. Also, the “G/Gmax Mean (Fig. 6d)” value (voltage 0 mV) is 0.9380. For the same compound, the “G/Gmax Mean (Fig. 6d)” value (voltage 20 mV) was determined as 1.0000. For the same compound, under “voltage -20 mV”, the “G/Gmax Mean (Fig. 6d)” value stood at 0.9095. For the same compound, the “G/Gmax Mean (Fig. 6d)” value (voltage -40 mV) came out at 0.8354. Further, the “G/Gmax Mean (Fig. 6d)” value (voltage -60 mV) worked out at 0.4098. Moreover, for the setting “voltage -80 mV”, the “G/Gmax Mean (Fig. 6d)” value was 0.0040. Besides, the “G/Gmax Mean (Fig. 6d)” value (voltage -100 mV) came to 0.0015. Also, the “G/Gmax Mean (Fig. 6d)” value (voltage -120 mV) is recorded as 0.0016.
